Assay results from patent publication US4269842A, “Method for treating rhinoviral complaints” (Rhone-Poulenc Industries, priority 1979, dated 1981).
In brackets after ≈: the same amount, converted by molar mass.

Assays:
[1] = test system: Rhinovirus type 1 A (R 2060 strain); test: Inhibition of cytopathogenic effect of rhinovirus type 1 A in human fibroblast cultures; format: cell-based, human rhinovirus type 1 A; settings: Enterovirus, 37° C., 3-4 days; for MIC: human fibroblasts, prevention of cytopathogenic effect, read-out: Minimum inhibitory concentration, Rhinovirus type 1 A; for inhibition at 15 µg/mL: Fibroblast, at 15 μg/cm^3, human fibroblasts, read-out: Inhibition of cytopathogenic effect, Rhinovirus type 1 A (printed in minimum inhibitory concentration column)
Procedure: (§1) The type 1 A (R 2060 strain) and type 1 B (R 1112 strain) human rhinoviruses have the property of forming foci of necrosis (cytopathogeniceffect) on single-layer cell cultures. The compounds of the formula (I), which prevent the formation of these foci, have been selected as active substances.
(§2) Decreasing concentrations of the same solution or suspension of the compound under test are added to fresh identical cell cultures, the highest concentration being the maximum non-cytotoxic concentration. About one hour after the compounds have been added, the cultures are inoculated with 0.2 cm^3 of a suitably diluted suspension of virus (in isotonic phosphate buffer), which is capable of destroying about 75% of cells (cytopathogenic effect). 5 Control cultures (without test compound) are also inoculated. All the cultures are then incubated at 37° C. in a "roller" tissue culture apparatus at the same time as 2 control cultures (without test compound or virus) which have received 0.2 cm^3 of isotonic phosphate buffer. 3-4 Days after the start of the experiment, the cytopathogenic effect of the virus is examined under a microscope. The active compounds are those which have prevented the appearance of the cytopathogenic effect, and those which have inhibited it by at least 50% are considered to be partially active.

[2] = in vitro; format: cell-based; settings: human, mcr-5 fibroblasts
[3] = test system: Rhinovirus type 1 B (R 1112 strain); test: Inhibition of cytopathogenic effect of rhinovirus type 1 B in human fibroblast cultures; format: cell-based, human rhinovirus type 1 B; settings: Enterovirus, human fibroblasts, 37° C., 3-4 days, prevention of cytopathogenic effect, read-out: Minimum inhibitory concentration, Rhinovirus type 1 B
Procedure: as §1, §2

Compound	MNTC [2]	MIC [1]	MIC [3]	inhibition at 15 µg/mL [1]
Fc1ncccc1N=C1SC[C@@H]2Cc3ccccc3CN12 [Compound 3, (S)-3-[(2-fluoropyrid-3-yl)-imino]-1,5,10,10a-tetrahydrothiazolo[3,4-b]-isoquinoline]	15 µg/mL	15 mg/L (≈ 50.1 µM)	0.016 mg/L (≈ 0.0534 µM)	–
Clc1ncccc1N=C1SC[C@@H]2Cc3ccccc3CN12 [Compound 2, (S)-3-[(2-chloropyrid-3-yl)-imino]-1,5,10,10a-tetrahydrothiazolo[3,4-b]isoquinoline]	15 µg/mL	–	0.016 mg/L (≈ 0.0507 µM)	≥ 50%
c1cncc(N=C2SC[C@@H]3Cc4ccccc4CN23)c1 [Compound 1]	> 30 µg/mL	15 mg/L (≈ 53.3 µM)	0.15 mg/L (≈ 0.533 µM)	–

Now from value to compound, other results behind:

MNTC [2]	Compound	MIC [1]	MIC [3]	inhibition at 15 µg/mL [1]
30 µg/mL	Cc1cc2c(N=C3SC[C@@H]4Cc5ccccc5CN34)cccc2cn1 [Compound 6, (S)-3-(3-methylisoquinol-5-yl)-imino-1,5,10,10a-tetrahydrothiazolo[3,4-b]isoquinoline]	1.5 mg/L (≈ 4.34 µM)	1.5 mg/L (≈ 4.34 µM)	–
> 60 µg/mL	c1ccc2c(c1)C[C@H]1CSC(=Nc3cccc4cnccc34)N1C2 [Compound 5]	0.7 mg/L (≈ 2.11 µM)	0.7 mg/L (≈ 2.11 µM)	–
15 µg/mL	COc1ncccc1N=C1SC[C@@H]2Cc3ccccc3CN12 [Compound 4, (S)-3-[(2-methoxypyrid-3-yl)-imino]-1,5,10,10a-tetrahydrothiazolo[3,4-b]isoquinoline]	–	1.5 mg/L (≈ 4.82 µM)	≥ 50%
